Assay results: US11878015B2, “Piperidine-substituted Mnk inhibitors and methods related thereto” (eFFECTOR Therapeutics Inc., priority 2017, dated 2024)
Where two headings read alike, the source gives them in different places.

Key:
Phosphorylated eIF4E = test: peIF4E signaling cellular assay (CisBio peIF4E HTRF); type: cell-based; settings: 2 hrs incubation at 37° C., 12-point curve 20 μM to 0.1 nM; read-out: pEI4IE signaling activity
Procedure: Phosphorylated eIF4E is assayed using the CisBio peIF4E HTRF® assay kit (CisBio, catalogue No. 64EF4PEG). Cells are plated in 96-well tissue-culture treated plate in appropriate growth medium (90 μL). Compounds (10×) are diluted using 3-fold serial dilutions in cell culture medium and added to cells. Plates are incubated for 2 hrs at 37° C. The cell supernatant is carefully removed either by aspirating supernatant or by flicking the plate. Immediately 50 μL of supplemented lysis buffer (1×) is added and incubated for at least 30 minutes at room temperature under shaking. After homogenization by pipeting up and down, 16 μL of cell lysate is transferred from the 96-well cell-culture plate to a 384-well small volume white plate. 4 μL of premixed antibody solutions (vol/vol) is prepared in the detection buffer and added. The plate is covered with a plate sealer and incubated overnight at room temperature. The fluorescence emissions at two different wavelengths are read (665 nm and 620 nm) on a Wallac Victor2. Emission ratios are converted into percent inhibitions and imported into GraphPad Prism software. […] IC50 values are determined using a nonlinear regression model available in GraphPad Prism 5.
To this end, IC50 values of less than 0.001 μM are labelled as “+++”, from 0.001 to 0.01 μM are labelled as “++”, and greater than 0.01 μM are labelled as “+” (NA means “not available”).

PD-1 = PD-1 (CD279) expression on PHA/PMA-activated Jurkat T cells, flow cytometry; type: cell-based; settings: Homo sapiens, percentage of inhibition of PD-1 positive cells at 10 μM, 48 hours
Procedure: To examine the effect of MNK inhibitors on PD-1 expression, Jurkat cells (Clone E6.1, ATCC, transformed T cells) were used, which express PD-1 when activated through T cell receptor (TCR) signaling. Briefly, Jurkat cells were grown in 1×RPMI with 1×Pen/Strep, and 10% FBS, then about 3×10^6 Jurkat cells were activated in presence of 1 μg/mL PHA (Sigma) and 50 ng/mL PMA (Sigma). Test Cells were treated simultaneously with various concentrations of an MNK inhibitor (0, 0.01, 0.1, 1, 3 and 10 μM). After 48 hours, culture supernatants were harvested and examined via sandwich ELISA for the presence of IL-2 using human IL-2 ELISA DuoSet (R&D Systems, Minneapolis, Minn.). The level of PD-1 on Jurkat cells was examined by incubating with human FcR block, then contacted with allophycocyanin (APC) conjugated anti-PD-1 antibody (5 μl per 100 μl volume of test, Biolegend, San Diego, CA) for 25 minutes at 4° C., without washing the cells, fixable dead cell stain (1:10,000; BD Biosciences, San Jose, CA) was added and incubated further for 10 minutes at 4° C. Cells were washed two times with flow buffer, and finally cells were fixed with fixation buffer for 15 minutes at 4° C. After fixation, cells were washed twice with flow buffer and re-suspended in flow buffer and assessed for fluorescence using BD Accuri C6 flow cytometer. Data were analyzed using the C6 cytometer software (BD Biosciences, San Jose, CA) or Attune Nxt Cytometer (Invitrogen, Carlsbad, CA).
Activation of Jurkat T cells with PHA and PMA induced the expression of PD-1 on the cell surface of about 25-30% of the stimulated Jurkat cells as compared to uninduced cells (Unstim) and induced a 1,000-fold increase in IL-2 cytokine production, respectively. […] Lastly, MNK inhibition by various different MNK inhibitors had no effect on cell viability. […] To this end, percentage of inhibition of PD-1 positive cells (10 μM) of more than 50% are labelled as “+++”, from 10% to 50% are labelled as “++”, and less than 10% are labelled as “+” (NA means “not available”).

[1] = High throughput thermodynamic solubility procedure; type: physicochemical; settings: for solubility in fasted state simulated gastric fluid (FaSSGF), in words: pH value of 1.6; for solubility at 18 h: thermodynamic from solid, 18 hours incubation, theoretical maximum 10 mM
Procedure: In a 96-well plate, 10 mM DMSO stocks (50-100 uL) of each compound were dried under heated nitrogen flow using a SPE-96 plate dryer (upper flow rate=50 L/min, temperature=60° C., lower flow rate=20 L/min, temperature=80° C.). […] Compounds prepared as the free base were assessed in conditions with and without one equivalent of TFA added. The theoretical maximum concentrations of the aqueous solutions were 10 mM. Each well was capped and incubated for a period of 18 hours at room temperature or 37° C. Mixing of the solutions during the incubation period was performed by either shaking the plate at 750 rpm or adding StirStix (stainless steel capillaries) and agitating the mixture using a rotary magnetic tumble stirrer. After the incubation period, aliquots from each well were filtered. Solubility of all samples were quantified following comparison to standards of known concentration by HPLC-UV.

[2] = Fasted-State Simulated Intestinal Fluid (FaSSIF), pH 6.5, fassif, Fasted-State Simulated Intestinal Fluid, read-out: Aqueous Solubility FaSSIF (pH 6.5)
[3] = deionized water, read-out: Aqueous Solubility DI H2O

| IC50 (Phosphorylated eIF4E) [nM] | solubility in fasted state simulated gastric fluid (FaSSGF), in words [1] | solubility at 18 h [1, 2] | solubility at 18 h [1, 3] | Structure (SMILES) | inhibition at 10 µM (PD-1) [%] |
| --- | --- | --- | --- | --- | --- |
| > 10 | excellent solubility | 125 µg/mL | > 1850 µg/mL | Cc1cc(Nc2ncnc(N)c2C)c(=O)n2c1C(=O)N[C@]21CCCN(C)C1 (stereo in doubt) [Compound 1Fa, (R)-6-((6-amino-5-methylpyrimidin-4-yl)amino)-1′,8-dimethyl-2H-spiro[imidazo[1,5-a]pyridine-3,3′-piperidine]-1,5-dione] | 10 to 50 |
| 1 to 10 | excellent solubility | 79 µg/mL |  | Cc1cc(Nc2ncnc(N)c2C#N)c(=O)n2c1C(=O)NC21CCCN(C)C1 (racemic) [rac-2F] | 10 to 50 |
| 1 to 10 | excellent solubility | 77 µg/mL | 1840 µg/mL | Cc1cc(Nc2ncnc(N)c2C#N)c(=O)n2c1C(=O)N[C@]21CCCN(C)C1 (single isomer, unassigned) [Compound 2Fa] | 10 to 50 |

The next lines start with the molecule.

| Structure (SMILES) | IC50 (Phosphorylated eIF4E) [nM] | solubility in fasted state simulated gastric fluid (FaSSGF), in words [1] | solubility at 18 h [1, 2] | solubility at 18 h [1, 3] | inhibition at 10 µM (PD-1) [%] |
| --- | --- | --- | --- | --- | --- |
| Cc1cc(Nc2ncnc(N)c2Cl)c(=O)n2c1C(=O)N[C@]21CCCNC1 [Compound 3K] | > 10 | excellent solubility | 158 µg/mL | 1530 µg/mL | > 50 |
| Cc1cc(Nc2ncnc(N)c2C)c(=O)n2c1C(=O)NC21CNCCC1(C)C (centres unmarked) [Compound 3T] | > 10 |  | 0.5 mM | 10 mM | 10 to 50 |
